Reference: ChEMBL document CHEMBL1124752, “Cyclobut-A and cyclobut-G: broad-spectrum antiviral agents with potential utility for the therapy of AIDS” (J Med Chem, 1990)

Assays:
Assay type in all cases: functional
[1] = system: Human immunodeficiency virus 1; assay: Tested for the determination of percentage protection at 2 uM concentrations against HIV-1 in ATH8 Cells
[2] = system: Human immunodeficiency virus 1; assay: Tested for the determination of percentage toxicity at 200 uM concentrations against HIV-1 in ATH8 Cells
[3] = system: Human immunodeficiency virus 1; assay: Tested for the determination of percentage protection at 10 uM concentrations against HIV-1 in ATH8 Cells
[4] = system: Human immunodeficiency virus 1; assay: Tested for the determination of percentage protection at 100 uM concentrations against HIV-1 in ATH8 Cells
[5] = system: Human immunodeficiency virus 1; assay: Tested for the determination of percentage toxicity at 100 uM concentrations against HIV-1 in ATH8 Cells
[6] = system: Human immunodeficiency virus 1; assay: Tested for the determination of percentage protection at 200 uM concentrations against HIV-1 in ATH8 Cells
[7] = system: Human immunodeficiency virus 1; assay: Tested for the determination of percentage toxicity at 10 uM concentrations against HIV-1 in ATH8 Cells
Human alphaherpesvirus 1 [8] = assay: Tested for mean day to death of nonsurvivors against HSV-1 infection in mice at 3.1 mg/kg per day
Human alphaherpesvirus 2 [9] = assay: Tested for mean day to death of nonsurvivors against HSV-2 encephalitis in mice at 125 mg/kg per day
Human alphaherpesvirus 2 [10] = assay: Tested for mean day to death of nonsurvivors against HSV-2 encephalitis in mice at 7.8 mg/kg per day
Human alphaherpesvirus 1 [11] = assay: Tested for mean day to death of nonsurvivors against HSV-1 infection in mice at 12.5 mg/kg per day
Human alphaherpesvirus 2 [12] = assay: Number of survivors per number of HSV-2 infected mice treated with 31.2 mg/kg per day; 0/10
Human alphaherpesvirus 2 [13] = assay: Number of survivors per number of HSV-2 infected mice treated with 7.8 mg/kg per day; 0/10
Human alphaherpesvirus 2 [14] = assay: Number of survivors per number of HSV-2 infected mice treated with 125 mg/kg per day; 3/10
Human alphaherpesvirus 2 [15] = assay: Tested for the effective dose required to inhibit HSV-2 encephalitis in infected mice
Human alphaherpesvirus 2 [16] = assay: Tested for mean day to death of nonsurvivors against HSV-2 encephalitis in mice at 31.2 mg/kg per day

| SMILES | Protection [1] [%] | Cytotoxicity [2] [%] | Protection [3] [%] | Protection [4] [%] | Cytotoxicity [5] [%] | Protection [6] [%] | Cytotoxicity [7] [%] | MDD (Human alphaherpesvirus 1 [8]) | MDD (Human alphaherpesvirus 2 [9]) | MDD (Human alphaherpesvirus 2 [10]) | MDD (Human alphaherpesvirus 1 [11]) | Survivors / treated (Human alphaherpesvirus 2 [12]) | Survivors / treated (Human alphaherpesvirus 2 [13]) | Survivors / treated (Human alphaherpesvirus 2 [14]) | ED50 (Human alphaherpesvirus 2 [15]) [mg/kg/day] | MDD (Human alphaherpesvirus 2 [16]) |
| --- | --- | --- | --- | --- | --- | --- | --- | --- | --- | --- | --- | --- | --- | --- | --- | --- |
| Nc1ncnc2c1ncn2[C@H]1CC[C@@H](CO)O1 | 69 | 0 | 99 | 100 | 8 | 99 | 0 | – | – | – | – | – | – | – | – | – |
| Nc1ncnc2c1ncn2[C@@H]1O[C@H](CO)[C@@H](O)[C@@H]1O [VIDARABINE] | – | – | – | – | – | – | – | 6.9 | 11.1 | 7.9 | 13.5 | 0 | 0 | 3 | > 125 | 9.3 |
